These results are taken from paper PMC7645381, “Development and application of a high-throughput screening assay for identification of small molecule inhibitors of the P. falciparum reticulocyte binding-like homologue 5 protein” (International Journal for Parasitology: Drugs and Drug …, 2020).

Where “and” joins values, the source holds several entries; their conditions need not be identical. Equal entries are not always repeated. Where two headings read alike, the source gives them in different places. Bounds are passed on as bounds.

In test [1] the target is P. falciparum Rh5 (Rh5 – basigin interaction) (Plasmodium falciparum, UniProt Q8IFM5). In words: biochemical. Format: binding.
Sequence of P. falciparum Rh5 (Rh5 – basigin interaction) (Q8IFM5 24-526): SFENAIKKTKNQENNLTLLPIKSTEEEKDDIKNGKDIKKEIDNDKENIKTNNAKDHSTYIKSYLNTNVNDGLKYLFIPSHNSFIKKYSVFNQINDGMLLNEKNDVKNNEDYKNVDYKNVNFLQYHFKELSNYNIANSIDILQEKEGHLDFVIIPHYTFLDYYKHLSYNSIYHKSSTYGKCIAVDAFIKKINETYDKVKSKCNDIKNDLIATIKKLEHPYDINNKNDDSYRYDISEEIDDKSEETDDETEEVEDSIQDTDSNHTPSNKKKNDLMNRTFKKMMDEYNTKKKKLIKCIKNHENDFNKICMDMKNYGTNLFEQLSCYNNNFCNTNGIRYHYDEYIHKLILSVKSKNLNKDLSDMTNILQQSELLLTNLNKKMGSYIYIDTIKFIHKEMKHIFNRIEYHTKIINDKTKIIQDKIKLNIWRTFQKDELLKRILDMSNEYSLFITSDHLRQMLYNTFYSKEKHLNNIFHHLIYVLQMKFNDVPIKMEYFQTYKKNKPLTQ
The subject of test [2] is D10-PfPHG parasites. In words: Schizont rupture assay. Format: cell-based, P. falciparum. The following applies: 50 and 100 μM, 6 h, flow cytometry. The method, then: D10-PfPHG parasites ([Wilson et al., 2010]) were cultured in human O^+ erythrocytes in RPMI-HEPES culture medium (pH 7.4, 50 μg/mL hypoxanthine, 25 mM NaHCO3, 20 μg/mL gentamicin, 0.5% Albumax II (Thermo Fisher Scientific) according to established protocols ([Trager and Jensen, 1976]) and maintained in an atmosphere of 1% O2, 4% CO2 and 95% N2. For assessment of merozoite invasion after schizont rupture, parasites were tightly synchronised to a 4 h window of invasion using heparin ([Boyle et al., 2010]; [Wilson et al., 2015]) and then grown for a further 42 h. Drug treatments were setup at 2–3% parasitaemia and 1% haematocrit in 50 μL volumes with a 1 in 10 dilution of drug added when parasites were 44–48 h post invasion. After 6 h of drug treatment and immediately after invasion was expected to finish, the assays were treated with 5 μg/mL ethidium bromide (EtBr, Bio-Rad) for 5 min prior to flow cytometry assessment of parasitaemia using a Becton Dickinson Accuri. Gating of newly invaded rings, free merozoites and unruptured late stages was achieved as per published methods ([Wilson et al., 2013]).
To determine if the modest activity of pranlukast and analogues in the parasite viability assay was a consequence of invasion inhibition, rather than inhibition at another stage of blood stage parasite development, we performed an assay that measures the effect of compound treatment on P. falciparum D10 asexual stage transition between late schizont and ring stages ([Wilson et al., 2013]). In this assay, highly synchronised mature schizont-stage parasites were incubated with pranlukast and selected analogues at 50 and 100 μM and the transition to newly invaded ring stage parasites was quantified by flow cytometry. In parallel, the rate of schizont rupture and merozoite release was quantified to assess whether any reduction in newly invaded ring stages was due to a block affecting merozoite release or development. […] Neither DMSO (at the maximal concentration used for the drug treatments of 0.1%) or a non-invasion inhibitory mAb control caused a reduction in merozoite invasion. […] […].
A general note: A flow cytometer gives signals particle by particle.

Test [3] has as its system P. falciparum 3D7 parasites. In words: P. falciparum parasite viability assay (LDH). Format: cell-based. The following applies: Plasmodium falciparum, 3D7, 72 h, LDH activity, 10-point dilution series, 72 h; read-out: P. falciparum 3D7 EC50. The method, then:
A modified version of the lactate dehydrogenase (LDH) assay described by [Gamo et al. […] Compounds were pre-dispensed in 384-well plates, RPMI/Albumax growth media was added, and P. falciparum inoculated. Plates were incubated for 72 h and then frozen at −80 °C overnight. LDH activity was quantified with the modified cofactor 3-acetylpyridine adenine dinucleotide (APAD) (Sigma Aldrich) by measuring absorbance of the tetrazolium indicator nitro blue tetrazolium (NBT) (Sigma Aldrich) at 650 nm. Parasite conditions: […] Growth inhibition assay: […] Intermediate compound dilution plates were prepared by dispensing 5 μL from each well of the compound master plate into 11.5 μL of RPMI/Albumax growth media. Duplicate assay plates (384-well) were then prepared by dispensing 0.5 μL of compound from the intermediate dilution plates into 9.5 μL of RPMI/Albumax growth media. […] The final DMSO concentration was 0.1% (to limit toxicity to parasites). […] Evaluation of parasite growth measuring lactate dehydrogenase (LDH) activity: After 72 h of incubation, plates were frozen at −80 °C overnight and then thawed at room temperature for at least 4 h. […] Plates were shaken to ensure mixing and absorbance at 650 nm was monitored using a PerkinElmer Envision plate reader after 30 min of incubation at room temperature. Data were normalised to percent growth inhibition using positive and negative controls and analyzed using TIBCO Spotfire software.

Test [4] relates to P. falciparum D10. The experiment in a line: P. falciparum D10 growth inhibition by flow cytometry. Format: cell-based. The following applies: Plasmodium falciparum, D10; growth inhibition by flow cytometry, 12-point dilution series, 72 h. The method, then: Pranlukast and selected analogues were then evaluated in a P. falciparum parasite viability assay. For this assay, we followed the procedure described by [Gamo et al. (2010)], that used lactate dehydrogenase (LDH) as a readout for parasite viability. In this assay, 3D7 parasites were incubated over 72 h in the presence of increasing concentrations of compounds. […]. For a comparison, selected compounds were incubated in the presence of P. falciparum D10 parasites for 72 h (Table 1, Fig. S14) and growth inhibition measured by flow cytometry. […].

In test [5] the test system is HepG2 cells. In words: HepG2 growth inhibition assay. The following applies: Homo sapiens, 10-point dilution series, 48 h, Cell Titre-Glo. Format: cell-based. The method, then:
HepG2 cells were cultured in Dulbeccos modified eagle's medium (DMEM) supplemented with 10% fetal calf serum (FCS), in a humidified incubator at 37 °C and 5% CO2. Ten-point compound titration assays were performed by treating cells (1 × 10^3) for 48 h in 384 well tissue culture treated plates (Greiner). Cytotoxicity was determined using Cell Titer Glo (Promega) and calculated as a percentage using DMSO as a positive growth control and 10 μM Bortezomib as a negative growth control. EC50 values were calculated using a 4-parameter log dose, non-linear regression analysis, with sigmoidal dose response (variable slope) curve fit using Graph Pad Prism (version 6.05). 0 and 100 constraint parameters were used for curve fitting. […]

Test [6] relates to HepG2 cells. Details: method as in Pingaew et al., 2014. Particulars: incubation time of 48 h, MTT assay ref Pingaew et al., 2014; read-out: HepG2 EC50 literature value; cited from earlier work. On the technique in general: Formazan colour is commonly taken as a measure of viable cells.
Test [7] can be described thus: Basigin_IC50_Counter_Alpha counterscreen. Particulars: 11 pt titration; flag (POORFIT given as ~). From the text: Supplement mmc3.xlsx, sheet "Report" | column: Basigin_IC50_Counter_Alpha IC50
Test [8] can be described thus: AlphaScreen TruHits counterscreen assay. Particulars: 11 pt titration; flag (POORFIT given as ~); read-out: Basigin_IC50_Counter_TruHits IC50. On the procedure:
The counterscreen assay was conducted using AlphaScreen TruHits kit (PerkinElmer). Biotinylated acceptor beads and Streptavidin donor beads were both diluted in assay buffer (final concentration of 10 μg/mL). Using the Combi-multidrop, 10 μL of each bead solution (20 μg/mL prepared in assay buffer) was added to every well of the assay plate under subdued lighting. Compound addition and assay readout was performed as described above.
A general note: Bead proximity is the source of the signal in Alpha formats.

[9] abbreviates: 11 pt titration of the 45 hits, flag (POORFIT given as ~), two lines per compound, read-out: Basigin_IC50_Assay_Alpha IC50.

Turning to `O=C(Nc1cccc2c(=O)cc(C(=O)O)oc12)c1ccc(OCCCCc2ccccc2)cc1` [Compound 18, 4-Oxo-8-(4-(4-phenylbutoxy)benzamido)-4H-chromene-2-carboxylic acid], the IC50 (in general, the midpoint of a concentration-inhibition curve) in test [1] was found to be 21 µM. Also, in test [2], the free merozoite numbers entry was “similarly reduced numbers of free merozoites”. Moreover, in test [2], the “merozoite invasion (newly invaded early ring stages)” value was “reduction in numbers of merozoites that had invaded and formed early ring stages”. Besides, the EC50 – broadly, the concentration at which the effect is half-maximal – is greater than 50 µM in test [3], 42 µM in test [4] and greater than 50 µM in test [5].

In the case of `COc1cc([C@@H]2c3cc4c(cc3[C@@H](O[C@@H]3O[C@@H]5CO[C@@H](C)O[C@H]5[C@H](O)[C@H]3O)[C@H]3COC(=O)[C@H]23)OCO4)cc(OC)c1O` [Etoposide, reference compound], the figures for the concentration for a half-maximal effect (EC50) in test [6] and in test [5] were 30.2 µM and 15.9 µM, respectively.

For the compound `CCCN1CCc2cccc3c2[C@H]1Cc1ccc(O)c(O)c1-3` [WEHI-1215034], the IC50 was 1.56 µM and 2.23 µM in test [1] (setting [9]); 20 µM and 22.9 µM in test [7]; greater than 25 µM in test [8].

As for `CN1CCc2cc(O)cc3c2[C@H]1Cc1ccc(O)c(O)c1-3` [WEHI-1215043], the IC50 in test [1] (setting [9]) is 4.02 µM and 4.98 µM; in test [7], greater than 25 µM; in test [8] it was greater than 25 µM.

Turning to `CCCN1CCc2cc(O)cc3c2[C@H]1Cc1ccc(O)c(O)c1-3` [WEHI-1215052], the IC50 in test [1] (setting [9]) was 7.45 µM and 8.43 µM; in test [7], greater than 25 µM; in test [8], greater than 25 µM.

For the compound `CC(=O)N1CCN(c2ccc(OC[C@@H]3CO[C@@](Cn4ccnc4)(c4ccc(Cl)cc4Cl)O3)cc2)CC1` [WEHI-1215227], the IC50 was 15.4 µM and 13.9 µM in test [1] (setting [9]); 13.5 µM and 12.1 µM in test [7]; 23.2 µM and 22.1 µM in test [8].

Consider `CN1CCc2cccc3c2[C@H]1Cc1ccc(O)c(O)c1-3` [WEHI-1216442], for which the half-inhibitory concentration (IC50) is ~4.07 µM and 4.14 µM in test [1] (setting [9]); greater than 25 µM in test [7]; greater than 25 µM in test [8].

As for `O=C(Nc1cccc2c(=O)cc(-c3nnn[nH]3)oc12)c1ccc(OCCCCc2ccccc2)cc1` [WEHI-1216506], the 50% inhibitory concentration (IC50) in test [1] (setting [9]) is 5.28 µM and ~5.6 µM; in test [7] it was 10.4 µM and 12.5 µM; in test [8], 24.8 µM and > 25 µM.

As for `COCCCOc1ccnc(C[S+]([O-])c2nc3ccccc3[nH]2)c1C` (centres unmarked) [WEHI-1216602], the IC50 is 1.08 µM and 1.23 µM in test [1] (setting [9]); greater than 25 µM in test [7]; greater than 25 µM in test [8].
